# Test results published in US7476673B2, “Disubstituted chalcone oximes as selective agonists of RARγ retinoid receptors” (Allergan, Inc., priority 2003, dated 2009).
# Tests used:
# [1] = target: T1, RARγ (Homo sapiens, UniProt P13631); experiment: chimeric receptor transactivation assay, RARγ; type: cell-based; conditions: for EC50: chimeric receptor transactivation, read-out: RAR EC50 γ; for % Efficiency γ: percentage of maximum compared to standard TTNPB
# T1 construct: % Efficiency γ; other: percentage of maximum compared to standard TTNPB
# T1 sequence (P13631 185-454 limits assumed): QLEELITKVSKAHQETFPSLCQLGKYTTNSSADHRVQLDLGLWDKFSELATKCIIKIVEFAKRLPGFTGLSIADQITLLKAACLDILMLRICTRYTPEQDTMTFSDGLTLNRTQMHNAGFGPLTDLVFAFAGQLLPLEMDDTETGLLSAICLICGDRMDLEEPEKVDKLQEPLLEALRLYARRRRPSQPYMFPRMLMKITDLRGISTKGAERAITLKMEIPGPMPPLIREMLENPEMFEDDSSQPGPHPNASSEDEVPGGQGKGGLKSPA
# Description: (§1) The compounds of the invention were tested in certain assays for activity as agonists of RAR and RXR retinoid receptors. Specifically, one such assay is a chimeric receptor transactivation assay which tests for agonist-like activity in the RARα, RARβ and RARγ receptor subtypes, and which is based on work published by Feigner P. L. and Holm M. (1989) Focus, 112 is described in detail in U.S. Pat. No. 5,455,265. The specification of U.S. Pat. No. 5,455,265 is hereby expressly incorporated by reference.
# (§2) A holoreceptor transactivation assay and a ligand binding assay which measure the antagonist/agonist like activity of the compounds of the invention, or their ability to bind to the several retinoid receptor subtypes, respectively, are described in published PCT Application No. WO WO93/11755 (particularly on pages 30-33 and 37-41) published on Jun. 24, 1993, the specification of which is also incorporated herein by reference. A detailed experimental procedure for holoreceptor transactivations has been described by Heyman et al. Cell 68, 397-406, (1992); Allegretto et al. J. Biol. Chem. 268, 26625-26633, and Mangelsdorf et al. The Retinoids: Biology, Chemistry and Medicine, pp 319-349, Raven Press Ltd., New York, which are expressly incorporated herein by reference. The results obtained in this assay are expressed in EC50 numbers, as they are also in the chimeric receptor transactivation assay. The results of the ligand binding assay are expressed in Ki numbers. (See Cheng et al. Biochemical Pharmacology Vol. 22 pp 3099-3108, expressly incorporated herein by reference.)
# (§3) Efficacy in a transactivation assay is expressed as a percentage of the maximum potency attained by the compound compared to a standard which, in this case, is the compound 4-[(1E)-2-(5,6,7,8-tetrahydro-5,5,8,8-tetramethyl-2-naphthalenyl)-1-propenyl]-benzoic acid. (TTNPB) This standard compound is described in PCT Publication WO 2002077169 A2.
# (§4) Table 1 discloses the activity of certain exemplary compounds of the invention in the above-described chimeric RAR receptor transactivation and binding assays.
# [2] = target: T2, RARβ (Homo sapiens, UniProt P10826); experiment: chimeric receptor transactivation assay, RARβ; type: cell-based; conditions: for EC50: chimeric receptor transactivation, read-out: RAR EC50 β; for % Efficiency β: percentage of maximum compared to standard TTNPB
# T2 sequence (P10826 183-455 limits assumed): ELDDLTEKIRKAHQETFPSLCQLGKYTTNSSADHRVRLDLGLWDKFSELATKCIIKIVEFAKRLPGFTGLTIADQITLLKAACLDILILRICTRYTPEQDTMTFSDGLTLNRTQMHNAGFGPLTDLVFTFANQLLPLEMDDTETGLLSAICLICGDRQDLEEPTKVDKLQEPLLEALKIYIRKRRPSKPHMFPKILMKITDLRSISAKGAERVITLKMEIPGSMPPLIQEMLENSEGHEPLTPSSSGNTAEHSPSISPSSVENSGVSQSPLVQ
# Description: as §1, §2, §3, §4
# [3] = target: T3, RARβ (Homo sapiens, UniProt P10826); experiment: ligand binding assay, RARβ; conditions: results expressed in Ki numbers, read-out: RAR Binding β
# T3 sequence (P10826 1-455): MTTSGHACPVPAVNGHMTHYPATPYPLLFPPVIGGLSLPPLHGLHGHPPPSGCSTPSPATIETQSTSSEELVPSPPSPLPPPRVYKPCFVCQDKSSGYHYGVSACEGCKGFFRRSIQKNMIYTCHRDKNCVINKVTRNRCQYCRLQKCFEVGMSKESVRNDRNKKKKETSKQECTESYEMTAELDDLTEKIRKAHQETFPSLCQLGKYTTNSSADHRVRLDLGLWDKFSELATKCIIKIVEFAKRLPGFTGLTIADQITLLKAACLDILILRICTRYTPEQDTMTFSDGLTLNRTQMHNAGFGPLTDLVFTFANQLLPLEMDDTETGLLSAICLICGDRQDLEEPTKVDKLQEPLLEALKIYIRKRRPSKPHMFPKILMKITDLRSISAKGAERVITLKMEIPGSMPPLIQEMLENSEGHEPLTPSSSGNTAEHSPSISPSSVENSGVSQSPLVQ
# Text: as §2, §4
# [4] = target: T4, RARα (Homo sapiens, UniProt P10276); experiment: chimeric receptor transactivation assay, RARα; type: cell-based; conditions: for EC50: chimeric receptor transactivation, read-out: RAR EC50 α; for % Efficiency α: percentage of maximum compared to standard TTNPB
# T4 sequence (P10276 183-417 limits assumed): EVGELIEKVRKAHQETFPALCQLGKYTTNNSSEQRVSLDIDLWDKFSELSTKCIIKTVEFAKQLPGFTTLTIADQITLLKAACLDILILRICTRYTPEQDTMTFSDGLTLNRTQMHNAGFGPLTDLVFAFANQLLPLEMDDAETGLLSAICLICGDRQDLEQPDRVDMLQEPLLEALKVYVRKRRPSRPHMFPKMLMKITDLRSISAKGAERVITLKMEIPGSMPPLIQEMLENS
# Description: as §1, §2, §3, §4
# [5] = target: T5, RARα (Homo sapiens, UniProt P10276); experiment: ligand binding assay, RARα; conditions: results expressed in Ki numbers, read-out: RAR Binding α
# T5 sequence (P10276 1-462): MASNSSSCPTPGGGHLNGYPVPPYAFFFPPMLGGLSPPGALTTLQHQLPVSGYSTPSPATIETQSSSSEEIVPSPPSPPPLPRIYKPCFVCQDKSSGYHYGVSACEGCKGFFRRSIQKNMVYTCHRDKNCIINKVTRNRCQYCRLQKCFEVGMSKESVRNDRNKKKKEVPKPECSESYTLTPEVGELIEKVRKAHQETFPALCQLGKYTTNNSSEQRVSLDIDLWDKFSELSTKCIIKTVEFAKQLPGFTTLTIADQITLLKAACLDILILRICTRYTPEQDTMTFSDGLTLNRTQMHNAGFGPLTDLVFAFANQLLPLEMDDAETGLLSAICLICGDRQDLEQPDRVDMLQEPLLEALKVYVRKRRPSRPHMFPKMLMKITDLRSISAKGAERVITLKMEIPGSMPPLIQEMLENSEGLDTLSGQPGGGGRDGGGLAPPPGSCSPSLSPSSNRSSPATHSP
# Text: as §2, §4
# [6] = target: T6, RARγ (Homo sapiens, UniProt P13631); experiment: ligand binding assay, RARγ; conditions: results expressed in Ki numbers, read-out: RAR Binding γ
# T6 sequence (P13631 1-454): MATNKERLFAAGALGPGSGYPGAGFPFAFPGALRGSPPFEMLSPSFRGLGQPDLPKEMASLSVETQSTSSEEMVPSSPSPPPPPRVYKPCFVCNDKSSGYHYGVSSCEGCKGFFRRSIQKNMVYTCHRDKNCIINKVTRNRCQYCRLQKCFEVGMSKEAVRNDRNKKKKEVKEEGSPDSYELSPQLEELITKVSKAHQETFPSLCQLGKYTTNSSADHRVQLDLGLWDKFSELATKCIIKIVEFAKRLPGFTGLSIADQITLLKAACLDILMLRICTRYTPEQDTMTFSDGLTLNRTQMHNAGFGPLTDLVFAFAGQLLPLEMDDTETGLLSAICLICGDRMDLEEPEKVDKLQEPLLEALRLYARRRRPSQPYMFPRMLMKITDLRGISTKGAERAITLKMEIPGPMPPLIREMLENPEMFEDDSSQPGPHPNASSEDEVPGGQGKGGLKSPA
# Text: as §2, §4
compound,measurement,setting,value
CC1(C)CCSc2ccc(C(C=Cc3ccc(C(=O)O)cc3)=NO)cc21 [drawing 18],EC50,[1],0.00075 µM
same,% Efficiency γ,[1],88%
same,EC50,[2],0.079 µM
same,% Efficiency β,[2],87%
same,Ki,[3],1.08 µM
same,EC50,[4],0.242 µM
same,% Efficiency α,[4],117%
same,Ki,[5],5 µM
same,Ki,[6],0.006 µM
CC1(C)CCCc2cc(C(C=Cc3ccc(C(=O)O)cc3)=NO)ccc21 [drawing 17],EC50,[1],0.204 µM
same,% Efficiency γ,[1],65%
same,EC50,[2],0.173 µM
same,% Efficiency β,[2],60%
same,Ki,[3],31 µM
same,EC50,[4],12 µM
same,% Efficiency α,[4],42%
same,Ki,[5],12 µM
same,Ki,[6],27 µM
CC1(C)CC(C)(C)c2cc(C(C=Cc3ccc(C(=O)O)cc3)=NO)ccc21 [drawing 30],EC50,[1],0.0002 µM
same,% Efficiency γ,[1],71%
same,EC50,[2],0.083 µM
same,% Efficiency β,[2],104%
same,Ki,[3],17 µM
same,EC50,[4],0.148 µM
same,% Efficiency α,[4],55%
same,Ki,[5],7 µM
same,Ki,[6],0.006 µM
CCCCCCCN1C(=O)CC(C)(C)c2cc(C(/C=C/c3ccc(C(=O)O)cc3)=N\O)ccc21,EC50,[1],0.092 µM
same,% Efficiency γ,[1],35%
same,EC50,[2],0.473 µM
same,% Efficiency β,[2],23%
same,Ki,[3],9 µM
same,EC50,[4],> 1 µM
same,Ki,[5],17 µM
same,Ki,[6],0.032 µM
COc1cc2c(cc1C(/C=C/c1ccc(C(=O)O)cc1)=N/O)C(C)(C)CCC2(C)C,EC50,[1],0.019 µM
same,% Efficiency γ,[1],98%
same,EC50,[2],1.27 µM
same,% Efficiency β,[2],65%
same,Ki,[3],2.5 µM
same,EC50,[4],80 µM
same,% Efficiency α,[4],29%
same,Ki,[5],2 µM
same,Ki,[6],0.648 µM
CC1(C)CC(C)(C)c2cc(C(C=Cc3ccc(C(=O)O)cc3)=NO)ccc2O1 [drawing 24],EC50,[1],> 10 µM
same,EC50,[2],> 10 µM
same,Ki,[3],> 10 µM
same,EC50,[4],> 10 µM
same,Ki,[5],> 10 µM
same,Ki,[6],> 10 µM
CC1(C)CCCc2ccc(C(C=Cc3ccc(C(=O)O)cc3)=NO)cc21 [drawing 14],EC50,[1],0.003 µM
same,% Efficiency γ,[1],98%
same,EC50,[2],0.432 µM
same,% Efficiency β,[2],88%
same,Ki,[3],4.7 µM
same,EC50,[4],> 1 µM
same,Ki,[5],22 µM
same,Ki,[6],0.016 µM
CC1=CCC(C)(C)c2cc(C(/C=C/c3ccc(C(=O)O)cc3)=N/O)ccc21,EC50,[1],0.0003 µM
same,% Efficiency γ,[1],91%
same,EC50,[2],0.054 µM
same,% Efficiency β,[2],95%
same,Ki,[3],1.3 µM
same,EC50,[4],7 µM
same,% Efficiency α,[4],38%
same,Ki,[5],3 µM
same,Ki,[6],0.006 µM
CC1(C)CC(C)(C)c2cc(C(C=Cc3ccc(C(=O)O)cc3)=NO)ccc21 [drawing 31],EC50,[1],0.002 µM
same,% Efficiency γ,[1],91%
same,EC50,[2],0.093 µM
same,% Efficiency β,[2],118%
same,Ki,[3],11 µM
same,EC50,[4],0.134 µM
same,% Efficiency α,[4],55%
same,Ki,[5],6 µM
same,Ki,[6],0.039 µM
CC1(C)CCCc2cc(C(C=Cc3ccc(C(=O)O)cc3)=NO)ccc21 [drawing 16],EC50,[1],> 10 µM
same,EC50,[2],> 10 µM
same,Ki,[3],> 10 µM
same,EC50,[4],> 10 µM
same,Ki,[5],2 µM
same,Ki,[6],6 µM
CC1=CCC(C)(C)c2cc(C(/C=C/c3ccc(C(=O)O)cc3F)=N\O)ccc21,EC50,[1],0.011 µM
same,% Efficiency γ,[1],90%
same,EC50,[2],0.445 µM
same,% Efficiency β,[2],92%
same,Ki,[3],11 µM
same,EC50,[4],> 1 µM
same,Ki,[5],18 µM
same,Ki,[6],0.028 µM
